From publication PMC2567432 (PLoS ONE, 2008) come the findings set out here.

“Also recorded” adds a separate entry of the source.

Data set [1] has as its system astrocytoma 1321N1 cells. In words: Apoptosis/necrosis by annexin V-FITC/PI staining, flow cytometry. The data set is classed as cell-based. The following applies: 24 h. The method, then: (§1) Apoptosis/necrosis was evaluated using annexin V-5-fluorescein isothiocyanate (FITC)/propidium iodine (PI) staining followed by flow cytometric analysis. […] The proportion of dead cells (a: annexin V-FITC^−/PI^+), late apoptotic/necrotic cells (b: annexin V-FITC^+/PI^+), non-apoptotic cells (c: annexin V-FITC^−/PI^−) and early apoptotic cells (d: annexin V-FITC^+/PI^−). (B) Results of 3 independent experiments. […] Data represent the mean±S.D. of three independent experiments.
Samples were analyzed by flow cytometry using a FACSCalibur and the CellQuest software (BD Biosciences, San Jose, USA). Laser excitation wavelength was set at 488 nm. The green signal from annexin V-FITC was measured at 525 nm and the red signal from PI was measured at 620 nm. Annexin V^−/PI^− cells are viable; annexin V^+/PI^− cells are in early apoptosis, whereas annexin V^+/PI^+ cells are necrotic or in late apoptosis are […]
For orientation: Flow cytometry measures light scatter and fluorescence of single cells or particles in a stream.

Data set [2] has as its system prostate cancer PC-3 cells. Put plainly: Cell proliferation WST-1 assay, PC-3. The data set is classed as cell-based. The method, then:
(§2) Figure 3 Growth inhibition of different tumor cell lines by polyphenols. […] Following 24-h incubation, cell proliferation was evaluated using the WST-1 assay.
(§3) Tumor cells were cultured in RPMI medium containing 10% fetal calf serum (RPMI-FCS) (PC-3, JIMT-1, MDA-MD 231) or in DMEM-FCS (astrocytoma 1321N1 cells) containing penicillin/streptomycin (100 U penicillin/ml; 100 µg streptomycin/ml) at 37°C/5% CO2. Cytosolic protein extracts of tumor cells were prepared using extraction buffer composed of 25 mM Tris, 2 mM EDTA, 10% Glycerol, 1% Triton ×100, 2 mM DTT, 1mM PMSF, pH. 7.0 containing 0.3% protease inhibitor cocktail. Protein content was determined according to Bradford. Specific activity of enzymes analyzed in cell extracts was expressed as U/mg protein.
(§4) Cell proliferation/vitality of tumor cells (96-well plates; 5000 cells/well) and primary human hepatocytes (24-well plates; 0.25×10^6 cells/well) was assayed using the WST-1 assay according to manufacturer's instructions. Trypan blue exclusion was performed by staining cells with 0.4% aqueous trypan blue solution according to the manufacturer's instructions.
On the technique in general: Tetrazolium assays rely on reduction of a dye to a coloured formazan, in cell work by metabolically active cells.

In data set [3] the test system is Glo1 in JIMT-1 cells. Put plainly: Glo1 protein content by Western blot. As to conditions: JIMT-1, 24 h. The data set is classed as cell-based, human. How it is done: Cells were harvested and the specific activity of Glo1 and LDH was determined in the cytosolic extract. (B) Semi-quantitative analysis of protein content as performed by Western blot using specific antibodies against β-actin and Glo1. The blot was developed by chemoluminescense detection. […] Data represent the mean±S.D. of independent experiments (n = 6).
An amount of 20 µg to 40 µg of cytosolic extract was loaded to SDS-pore gradient gels (4 to 20%) and run under reducing conditions. Proteins were blotted to cellulose nitrate membranes (Whatman Schleicher & Schuell, Dassel, Germany) and Glo1 was detected by anti-Glo1 monoclonal antibodies (1 µg/ml) (BioMac, Leipzig, Germany) in combination with goat anti-mouse Ig-HRP (1∶1000) (Dako, Hamburg, Germany). For comparison, β-actin was analyzed using rabbit anti-β-actin Ig (1∶2000) (Acris, Hiddenhausen, Germany) in conjunction with HRP-labeled goat anti-rabbit Ig (Dianova, Hamburg, Germany). Band visualization was performed by chemiluminescence detection (Boehringer, Mannheim, Germany).

The test system of data set [4] is 1321N1 cells. Put plainly: Glutathione (GSH) level in cytosolic extract, 1321N1. The format is cell-based. The following applies: 1321N1, 50 µM, 24 h. The method, then:
Cells were harvested and GSH concentration was determined in the cytosolic extract. Data represent the mean±S.D. of independent experiments (n = 6).
GSH was determined using DTNB method. Briefly, cytosolic extract of tumor cells were precipitated by 5% sulfosalicylic acid neutralization, aliquots were mixed with DTNB and absorbance was read at 412 nm against a standard solution of GSH.

Data set [5] concerns brain astrocytoma 1321N1 cells. Put plainly: Cell proliferation WST-1 assay, 1321N1. The format is cell-based. The method, then:
as §2, §3, §4

The subject of data set [6] is LDH. In words: LDH activity measurement, interference check. The format is biochemical. The following applies: spectrophotometric, 340 nm. How it is done:
LDH activity was spectrophotometrically assayed in the cytosolic extract or in the of cell cultures by adding aliquots to 1 ml reaction buffer (50 mM Na2HPO4, pH 7.0, 0.15 mM NADH, and 0.3 mM pyruvate). Enzyme activity was recorded at 340 nm.

In data set [7] the test system is primary human hepatocytes. Put plainly: Vitality of primary human hepatocytes (WST-1). The format is cell-based. As to conditions: 24-h incubation, increasing concentrations. The method, then: as §1
Primary human hepatocytes were isolated and cultivated in serum-free William Medium E [59]. Tissue samples from human liver resection were obtained from patients undergoing partial hepatectomy for metastatic liver tumor of colorectal cancer. Experimental procedures were performed according to the guidelines of the charitable state controlled foundation (Human Tissue and Cell Research), with the informed patient's consent approved by the local ethical committee.
as §4

Data set [8] deals with 1321N1 cells. In words: Cell vitality by trypan blue exclusion. The data set is classed as cell-based. As to conditions: 50 µM, 6-h incubation; control 95.6%±2.5%.
Description: (B) Cell vitality as assayed by the trypan blue exclusion test. Data represent the mean±S.D. of independent experiments (n = 6).
The target in data set [9] is T1, glyoxalase 1 (Glo1) (Homo sapiens, UniProt Q04760).
T1 construct: Glo1 was purified from human erythrocytes as described earlier; from tissue; host or cells: human erythrocytes
T1 sequence (Q04760 2-184 limits assumed): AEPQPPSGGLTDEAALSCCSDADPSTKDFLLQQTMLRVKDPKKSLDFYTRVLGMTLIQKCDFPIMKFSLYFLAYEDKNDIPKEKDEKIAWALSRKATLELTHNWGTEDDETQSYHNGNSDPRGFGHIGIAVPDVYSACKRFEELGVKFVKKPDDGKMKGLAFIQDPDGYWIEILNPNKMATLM
In words: Inhibition of purified glyoxalase 1 activity (Dixon plot). The format is biochemical. As to conditions: Dixon plot / model fit. The method, then: Purified Glo1 (70 mU) was incubated with increasing concentrations of different polyphenols at three substrate concentrations; and enzyme activity was recorded (n = 3). The inhibitor concentration was plotted vs. the reciprocal of enzyme activity (1/v) in Dixon plots.
Glo1 was purified from human erythrocytes as described earlier. Briefly, erythrocytes were treated with butanol/chloroform to denature hemoglobin followed by acetone and ammonium sulphate fractionation.
The determination of Glo1 (E.C.4.4.1.5) activity has been described previously. […] The inhibition constant, Ki value of the inhibitors was evaluated by Dixon plot showing the reciprocal of enzyme velocity against the inhibitor concentration at variable concentrations of the substrate. Human Glo2 (E.C.3.1.2.6) was measured using the substrate S-lactoylglutathione as described earlier.
A goodness-of-fit criterion (Akaike's information criterion, AIC) was used for falsification of incompatible inhibition models. […] Spearman's rank correlation test was applied to evaluate the correlation between the IC50 values of pro-inflammatory cytokine release and the Ki-values of various polyphenols. Data were presented as means±S.D. of at least three independent experiments. […] In all other tests, significance has been considered at values of p<0.05.

Consider `COc1cc(C=CC(=O)CC(=O)C=Cc2ccc(O)c(OC)c2)ccc1O` [curcumin, 1,7-bis(4-hydroxy-3-methoxyphenyl)-1,6-heptadiene-3,5-dione], for which the “early apoptotic cells (annexin V-FITC+/PI−)” value in data set [1] (10 µM) was determined as 11.0%. Further, the “late apoptotic/necrotic cells (annexin V-FITC+/PI+)” value in [1] (50 µM) is 98.2%. Besides, the “effect on PC-3 cells at 100 µM” value in data set [2] (100 µM, 24 h, morphology lost, necrotic cell death) is given as “toxic effect”. The “concentration giving strong anti-proliferative effects” value in [2] (PC-3, 24 h, WST-1) is listed as “above 50 µM”; in data set [5] (1321N1, 24 h, WST-1) it was “above 50 µM”. Besides, the “Glo1 protein content (Western blot)” value in data set [3] is given as “no alteration”. Also, the “GSH diminished by” value in [4] was “approximately 20%”. The compound also gave an inhibition at 50 µM in data set [5] (Homo sapiens, 1321N1, 50 µM, 24 h) of about 30%. In addition, the “effect on LDH enzyme activity in the assay” value in data set [6] is “not affected”. The “cell vitality of primary human hepatocytes” value in data set [7] is given as “no effect; also recorded: not affected”. Also, in data set [8], the “percentage of vital cells (trypan blue exclusion)” value is reported as 89.5%±2.5%. Further, the “mode of enzyme inhibition” value in data set [9] is reported as “competitive”.

The term inhibition denotes how much of the control response was suppressed. The low end stands for little suppression, the high end for strong suppression.
